From patent publication US11535594B2, “Microbiocidal picolinamide derivatives” (Syngenta Participations AG, priority 2017, dated 2022)

How the values were obtained:
[1] = tested on: Botryotinia fuckeliana (Botrytis cinerea); assay: Botryotinia fuckeliana (Botrytis cinerea) / liquid culture (gray mould); assay type: cell-based; details: Vogels broth, 24° C., 3-4 days after application, compared to untreated checks, read-out: disease control (inhibition of growth, photometric)
Protocol: (§1) Botryotinia fuckeliana (Botrytis cinerea)/Liquid Culture (Gray Mould) Conidia of the fungus from cryogenic storage are directly mixed into nutrient broth (Vogels broth). After placing a (DMSO) solution of test compound into a microtiter plate (96-well format), the nutrient broth containing the fungal spores is added. The test plates are incubated at 24° C. and the inhibition of growth is determined photometrically 3-4 days after application.

[2] = tested on: Glomerella Lagenarium (Colletotrichum lagenarium); assay: Glomerella lagenarium (Colletotrichum lagenarium) / liquid culture (anthracnose); assay type: cell-based; details: Colletotrichum orbiculare, PDB potato dextrose broth, 24° C., 3 to 4 days after application, compared to untreated checks, read-out: disease control (inhibition of growth, photometric)
Protocol: as §1, with “Glomerella Lagenarium (Colletotrichum lagenarium)/Liquid” for “Botryotinia fuckeliana (Botrytis cinerea)/Liquid”, “(Anthracnose)” for “(Gray Mould)”, “(PDB potato dextrose” for “(Vogels”, “measured” for “determined”, “3 to 4” for “3-4”

[3] = tested on: Mycosphaerella arachidis (Cercospora arachidicola); assay: Mycosphaerella arachidis (Cercospora arachidicola) / liquid culture (early leaf spot); assay type: cell-based; details: PDB potato dextrose broth, 24° C., 4-5 days after application, compared to untreated checks, read-out: disease control (inhibition of growth, photometric)
Protocol: as §1, with “Mycosphaerella arachidis (Cercospora arachidicola)/Liquid” for “Botryotinia fuckeliana (Botrytis cinerea)/Liquid”, “(Early Leaf Spot)” for “(Gray Mould)”, “(PDB potato dextrose” for “(Vogels”, “4-5” for “3-4”

[4] = tested on: Mycosphaerella Graminicola (Septoria tritici); assay: Mycosphaerella graminicola (Septoria tritici) / liquid culture (Septoria blotch); assay type: cell-based; details: Zymoseptoria tritici, PDB potato dextrose broth, 24° C., 4 to 5 days after application, compared to untreated checks, read-out: disease control (inhibition of growth, photometric)
Protocol: as §1, with “Mycosphaerella Graminicola (Septoria tritici)/Liquid” for “Botryotinia fuckeliana (Botrytis cinerea)/Liquid”, “(Septoria Blotch)” for “(Gray Mould)”, “(PDB potato dextrose” for “(Vogels”, “4 to 5” for “3-4”

[5] = tested on: Phaeosphaeria nodorum (Septoria nodorum); assay: Phaeosphaeria nodorum (Septoria nodorum) / wheat / leaf disc preventative (glume blotch); assay type: in vivo; details: Parastagonospora nodorum, foliar, 120 h, wheat leaf segments cv. Kanzler, inoculated 2 days after application, assessed 5-7 days after application, compared to untreated, read-out: disease control
Protocol: Phaeosphaeria nodorum (Septoria nodorum)/Wheat/Leaf Disc Preventative (Glume Blotch) Wheat leaf segments cv. Kanzler are placed on agar in a multiwell plate (24-well format) and sprayed with the formulated test compound diluted in water. The leaf disks are inoculated with a spore suspension of the fungus 2 days after application. The inoculated test leaf disks are incubated at 20° C. and 75% rh under a light regime of 12 h light/12 h darkness in a climate cabinet and the activity of a compound is assessed as percent disease control compared to untreated when an appropriate level of disease damage appears in untreated check leaf disks (5-7 days after application).

[6] = tested on: Puccinia Recondite f. Sp. Tritici; assay: Puccinia recondita f. sp. tritici / wheat / leaf disc preventative (brown rust); assay type: in vivo; details: foliar, wheat leaf segments cv. Kanzler, inoculated 1 day after application, assessed 7-9 days after application, compared to untreated, read-out: disease control
Protocol: Puccinia Recondite f. Sp. Tritici/Wheat/Leaf Disc Preventative (Brown Rust) Wheat leaf segments cv. Kanzler are placed on agar in multiwell plates (24-well format) and sprayed with the formulated test compound diluted in water. The leaf disks are inoculated with a spore suspension of the fungus 1 day after application. The inoculated leaf segments are incubated at 19° C. and 75% rh under a light regime of 12 h light/12 h darkness in a climate cabinet and the activity of a compound is assessed as percent disease control compared to untreated when an appropriate level of disease damage appears in untreated check leaf segments (7-9 days after application).

[7] = tested on: Monographella nivalis (Microdochium nivale); assay: Monographella nivalis (Microdochium nivale) / liquid culture (foot rot cereals); assay type: cell-based; details: PDB potato dextrose broth, 24° C., 4-5 days after application, compared to untreated checks, read-out: disease control (inhibition of growth, photometric)
Protocol: as §1, with “Monographella nivalis (Microdochium nivale)/Liquid” for “Botryotinia fuckeliana (Botrytis cinerea)/Liquid”, “(Foot Rot Cereals)” for “(Gray Mould)”, “(PDB potato dextrose” for “(Vogels”, “4-5” for “3-4”

[8] = tested on: Magnaporthe grisea (Pyricularia oryzae); assay: whole plant or invertebrate; assay type: in vivo; details: foliar, read-out: disease control
[9] = tested on: Blumeria graminis f. Sp. Tritici (Erysiphe Graminis f. Sp. Tritici); assay: Blumeria graminis f. sp. tritici / wheat / leaf disc preventative (powdery mildew on wheat); assay type: in vivo; details: 200 ppm; wheat leaf segments cv. Kanzler, inoculated 1 day after application, assessed 6-8 days after application, compared to untreated
Protocol: Blumeria graminis f. Sp. Tritici (Erysiphe Graminis f. Sp. Tritici)/Wheat/Leaf Disc Preventative (Powdery Mildew on Wheat)
Wheat leaf segments cv. Kanzler are placed on agar in a multiwell plate (24-well format) and sprayed with the test compound formulated with DMSO and Tween20 and diluted in water. The leaf disks are inoculated by shaking powdery mildew infected plants above the test plates 1 day after application. The inoculated leaf disks are incubated at 20° C. and 60% rh under a light regime of 24 h darkness followed by 12 h light/12 h darkness in a climate chamber and the activity of a compound is assessed as percent disease control compared to untreated when an appropriate level of disease damage appears on untreated check leaf segments (6-8 days after application).

Alternaria solani = Alternaria solani / tomato / leaf disc (early blight); assay type: in vivo; details: 200 ppm; tomato leaf disks cv. Baby, inoculated 2 days after application, assessed 5-7 days after application, compared to untreated
Protocol: Alternaria solani/Tomato/Leaf Disc (Early Blight) Tomato leaf disks cv. Baby are placed on agar in multiwell plates (24-well format) and sprayed with the formulated test compound diluted in water. The leaf disks are inoculated with a spore suspension of the fungus 2 days after application. The inoculated leaf disks are incubated at 23° C./21° C.

Row | SMILES | inhibition at 200 ppm [1] [%] | inhibition at 200 ppm [2] [%] | inhibition at 200 ppm [3] [%] | inhibition at 200 ppm [4] [%] | pest or weed control at 200 ppm [5] [%] | pest or weed control at 200 ppm [6] [%] | inhibition at 200 ppm [7] [%] | pest or weed control at 200 ppm [8] [%] | disease control [9] | control of Alternaria solani (Alternaria solani)
1 | COc1ccc(C(c2ccc(OC)cc2)N(C)OC(=O)[C@H](C)NC(=O)c2nccc(OC)c2O)cc1 [I.ab.01, [bis(4-methoxy phenyl)methyl-methyl-amino] (2S)-2-[(3-hydroxy-4-methoxy-pyridine-2-carbonyl)amino]propanoate] | ≥ 80 | ≥ 80 | ≥ 80 | ≥ 80 | ≥ 80 | ≥ 80 | – | – | – | –
2 | CCOc1ccc(C(c2ccc(OCC)cc2)N(C)OC(=O)[C@H](C)NC(=O)c2nccc(OC)c2O)cc1 [I.ac.01, [bis(4-ethoxy phenyl)methyl-methyl-amino] (2S)-2-[(3-hydroxy-4-methoxy-pyridine-2-carbonyl)amino]propanoate] | ≥ 80 | ≥ 80 | ≥ 80 | ≥ 80 | ≥ 80 | ≥ 80 | ≥ 80 | – | – | –
3 | COc1ccnc(C(=O)N[C@@H](C)C(=O)ON(C)C(c2ccccc2)c2ccccc2)c1O [I.m.01, [benzhydryl(methyl)amino] (2S)-2-[(3-hydroxy-4-methoxy-pyridine-2-carbonyl)amino]propanoate] | ≥ 80 | ≥ 80 | ≥ 80 | ≥ 80 | ≥ 80 | ≥ 80 | ≥ 80 | ≥ 80 | – | –
4 | CCC(c1ccccc1)(c1ccccc1)N(C)OC(=O)[C@H](C)NC(=O)c1nccc(OC)c1O [I.m.03, [1,1-diphenylpropyl (methyl)amino] (2S)-2-[(3-hydroxy-4-methoxy-pyridine-2-carbonyl)amino]propanoate] | ≥ 80 | – | ≥ 80 | ≥ 80 | ≥ 80 | – | ≥ 80 | – | – | –
5 | COc1ccnc(C(=O)N[C@@H](C)C(=O)ON(C)C(c2ccccc2)c2ccccc2)c1OC(C)=O [I.m.13, [benzhydryl(methyl)amino] (2S)-2-[(3-acetoxy-4-methoxy-pyridine-2-carbonyl)amino]propanoate] | – | – | ≥ 80 | ≥ 80 | ≥ 80 | ≥ 80 | – | ≥ 80 | at least 80% | –
6 | COc1ccnc(C(=O)N[C@@H](C)C(=O)ON(C)C(C)(c2ccccc2)c2ccc(Cl)cc2)c1O (stereo partly drawn) [I.o.02, [[1-(4-chlorophenyl)-1-phenyl-ethyl]-methyl-amino] (2S)-2-[(3-hydroxy-4-methoxy-pyridine-2-carbonyl)amino]propanoate] | – | – | ≥ 80 | ≥ 80 | ≥ 80 | ≥ 80 | – | ≥ 80 | – | at least 80%
7 | COc1ccnc(C(=O)N[C@@H](C)C(=O)ON(C)C(C)(c2ccc(F)cc2)c2ccc(F)cc2)c1O [I.s.02, [1,1-bis(4-fluorophenyl)ethyl-methyl-amino] (2S)-2-[(3-hydroxy-4-methoxy-pyridine-2-carbonyl)amino] propanoate] | ≥ 80 | ≥ 80 | ≥ 80 | ≥ 80 | ≥ 80 | – | – | ≥ 80 | – | –
8 | COc1ccnc(C(=O)N[C@@H](C)C(=O)ON(C)C(c2ccc(F)cc2)c2ccc(Cl)cc2)c1O (stereo partly drawn) [I.t.01, [[(4-chlorophenyl)-(4-fluorophenyl)methyl]-methyl-amino] (2S)-2-[(3-hydroxy-4-methoxy-pyridine-2-carbonyl)amino] propanoate] | ≥ 80 | ≥ 80 | ≥ 80 | – | ≥ 80 | ≥ 80 | – | – | – | –
9 | COc1ccnc(C(=O)N[C@@H](C)C(=O)ON(C)C(C)(c2ccc(Cl)cc2)c2ccc(Cl)cc2)c1O [I.u.02, [1,1-bis(4-chlorophenyl)ethyl-methyl-amino] (2S)-2-[(3-hydroxy-4-methoxy-pyridine-2-carbonyl)amino]propanoate] | ≥ 80 | ≥ 80 | ≥ 80 | ≥ 80 | ≥ 80 | – | ≥ 80 | – | – | –
10 | COc1ccnc(C(=O)N[C@@H](C)C(=O)ON(C)C(C)(c2ccc(Cl)cc2)c2ccc(Cl)cc2)c1OC(C)=O [I.u.14, [1,1-bis(4-chlorophenyl)ethyl-methyl-amino] (2S)-2-[(3-acetoxy-4-methoxy-pyridine-2-carbonyl)amino]propanoate] | ≥ 80 | ≥ 80 | ≥ 80 | ≥ 80 | ≥ 80 | ≥ 80 | ≥ 80 | ≥ 80 | – | –
11 | COc1ccnc(C(=O)N[C@@H](C)C(=O)ON(C)C(C)(c2ccc(Cl)cc2)c2ccc(Cl)cc2)c1OCOC(=O)C(C)C [I.u.26, [2-[[(1S)-2-[1,1-bis(4-chlorophenyl)ethyl-methyl-amino]oxy-1-methyl-2-oxo-ethyl]carbamoyl]-4-methoxy-3-pyridyl] oxymethyl 2-methylpropanoate] | ≥ 80 | – | ≥ 80 | ≥ 80 | – | ≥ 80 | ≥ 80 | – | – | –
12 | COc1ccnc(C(=O)N[C@@H](C)C(=O)ON(C)C(c2ccc(C)cc2)c2ccc(C)cc2)c1O [I.v.01, [bis-p-tolylmethyl (methyl)amino] (2S)-2-[(3-hydroxy-4-methoxy-pyridine-2-carbonyl)amino]propanoate] | ≥ 80 | ≥ 80 | ≥ 80 | ≥ 80 | – | ≥ 80 | ≥ 80 | – | – | –
